Assay results from patent publication US20150374861A1, “KIT FOR TUMOR IMAGING” (THOMAS JEFFERSON UNVERSITY, priority 2013, published 2015).
Like-named read-outs stand apart in the source and are kept apart here.

Experiments:
[1] = literature, Ga-67 Citrate 10 mCi, Cu-64 ATSM 25 mCi, cited from earlier work; for Effective Dose: FDG-PET/CT F-18 10 mCi, Sestamibi Tc-99m 30 mCi, FDG-PET/PM w/o CT F-18 10 mCi
[2] = tested on: primary tumor site and metastatic lymph nodes; assay: Whole body PET/CT imaging of breast cancer patients; assay type: in vivo, human; details: six PET/CT patients: six primary lesions, four involved lymph nodes
Method: Caucasian, Hispanic, African American or Asian non-pregnant women, eighteen years of age or older, with newly diagnosed, histologically proven BC were enrolled. Image guided percutaneous biopsy was performed two to six weeks prior to this imaging procedure. Each patient signed the informed consent form. For this feasibility study, a biostatistician determined that six patients be studied with PET and thirteen with PEM. This determination was based on the assumption that Cu-64-TP3805 will detect 80% of the lesions and there will be 87% power to conclude the use of this agent to diagnosis BC.
Each patient fasted for six hours prior to F-18-FDG injection. Before F-18-FDG injection, blood sugar was monitored. Patients with sugar levels below 250 mg/DL were enrolled. […]
For Cu-64-TP3805 imaging, patients neither fasted nor were blood sugar levels determined. […]
All images were read by two board certified nuclear medicine physicians and a board certified breast imaging physician. […] For six patients with PET/CT, standardized uptake values (SUV) were calculated for the primary tumor site and metastatic lymph nodes, and compared for the respective radiotracers. Metabolic tumor volume was calculated using 50% isocontour geometry method for comparison, as it is relatively a better parameter, as compared to SUV.

Compound | Effective Dose [1] [mSv] | Liver Dose [1] [mSv] | detection of lesions [2] | Effective Dose ([1]; listed as FDG-PET/CT) [mSv] | Effective Dose ([1]; listed as FDG-PET/PM w/o CT) [mSv]
CNC1=NN=C(C)C(C)=NN=C(NC)[S][64Cu][S]1 [Cu-64 ATSM] | 33.3 | 361 |  |  | 
OC[C@H]1O[C@@H](O)[C@H]([18F])[C@@H](O)[C@@H]1O [F-18-FDG] |  |  | ten lesions detected | 31.9 | 2.8
O=C([O-])CC(O)(CC(=O)[O-])C(=O)[O-].[Ga+3] [Ga-67 Citrate] | 39 | 69 |  |  | 
